Here are results for 15 compounds from patent US7326732B2, “EP2 receptor agonists” (Pharmagene Laboratories Limited, priority 2004, dated 2008).

In one assay the target is T1, human EP3 receptor (Homo sapiens, UniProt P43115).
T1 construct: expressed in transfected cells
T1 sequence (P43115 1-390): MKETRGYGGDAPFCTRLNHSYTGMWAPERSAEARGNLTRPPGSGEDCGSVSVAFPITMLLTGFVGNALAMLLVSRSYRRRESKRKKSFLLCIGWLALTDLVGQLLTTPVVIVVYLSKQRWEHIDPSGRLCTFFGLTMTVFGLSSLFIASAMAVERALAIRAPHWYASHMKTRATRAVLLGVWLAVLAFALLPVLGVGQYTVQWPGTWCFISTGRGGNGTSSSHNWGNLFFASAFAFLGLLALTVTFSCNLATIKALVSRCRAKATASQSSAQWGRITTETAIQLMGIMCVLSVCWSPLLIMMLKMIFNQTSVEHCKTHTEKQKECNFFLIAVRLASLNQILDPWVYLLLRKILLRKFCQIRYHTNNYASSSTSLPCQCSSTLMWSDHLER
Nature of the assay: Binding ability to human EP receptors ([3H]PGE2 displacement), EP3. Conditions: membranes expressing human EP3; [3H]PGE2 2.5 nM; Cheng-Prusoff; read-out: pKi (M) EP3 (converted). A digest of the protocol:
(§1)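 Membranes from cells stably expressing human EP2, EP3 or EP4 incubated to equilibrium with [3H]PGE2 and compound at 0.1 to 10 000 nM. Non-specific binding defined with 10 uM PGE2; bound label separated by vacuum filtration and quantified by scintillation counting.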

Assay [1] has as its target T2, human EP4 prostanoid receptors (Homo sapiens, UniProt P35408).
T2 construct: expressed in transfected cells; host or cells: HEK-293
Description: Antagonist activity at EP4 prostanoid receptors (PGE2-stimulated cAMP in HEK-293 clones). In kind it is cell-based. Conditions: for Kb: HEK-293 stably transfected with human EP4, 30 min pre-incubation before PGE2, Gaddum-Schild, slope of unity, read-out: pA2 EP4 (converted); for activity (EP4 part): functional classification at EP4, second line of the activity cell. The procedure:
Culture media was Minimal essential media (MEM), supplemented with 10% foetal bovine serum, 100 U/ml penicillin, […] streptomycin, 2.5 μg/ml fungizone, 2mM glutamine. Cells were cultured to confluency (3-4 days) prior to use. Culture media was removed, and confluent cells washed three times in MEM. […] Cells were then stimulated by the addition of 25 μl of PGE2 or agonists prepared in assay buffer. In antagonist studies, cells were pre-incubated with compounds for 30 minutes prior to PGE2-mediated stimulation Plates were incubated for 15 min at 37° C., before termination of the reaction by the addition of 25 μl 1M HCl. The plate was then frozen at -20° C. overnight before determination of cAMP concentration. Stimulated cAMP levels were determined by radioligand displacement binding. In brief, plates were thawed rapidly in a waterbath, and the samples neutralised by the addition of 25 μl 1M NaOH. 30 μl was transferred to Millipore plates pre-coated with 0.5% Polyethylenimine (PEI). Samples were diluted by addition of 90 μl cAMP determination buffer (50 mM Tris, 5 mM EDTA, pH 7.0). […] 15 μl of 2 nM (final concentration) [^3H] cAMP, and 15 μl of 3'5'-cAMP protein kinase (8 μg/well final concentration) prepared in cAMP determination buffer containing 0.1% BSA, were added to each well. Plates were incubated on ice for 2 hours, before bound and free radiolabel were separated by vacuum filtration harvesting using the Millipore vacuum manifold, using ice cold water as the termination buffer. The sealing mat was removed from the Millipore plates, and the filters allowed to dry overnight. 50 μl Microscint 0 (Packard Bioscience) was added to each well, and the plate counted using the Micro-Beta Trilux topcount ^3H program. cAMP accumulation was determined from the standard curve, and values calculated in pmoles cAMP/well. Antagonists affinities (pA2 values) were determined assuming a slope of unity and the […]-Schild equation, where pA2=log [concentration ratio-1]-log[antagonist].

Another assay concerns the target T3, human EP4 receptor (Homo sapiens, UniProt P35408).
T3 construct: expressed in transfected cells
Nature of the assay: Binding ability to human EP receptors ([3H]PGE2 displacement), EP4. Conditions: membranes expressing human EP4; [3H]PGE2 1 nM; Cheng-Prusoff; read-out: pKi (M) EP4 (converted). The method in brief:
as §1

In a further assay the target is T4, human EP2 receptor (Homo sapiens, UniProt P43116).
T4 construct: expressed in transfected cells
Description: Binding ability to human EP receptors ([3H]PGE2 displacement), EP2. Conditions: membranes expressing human EP2; [3H]PGE2 3 nM; Cheng-Prusoff; read-out: pKi (M) EP2 (converted). The method in brief: as §1

In assay [2] the target is T5, human EP2 prostanoid receptors (Homo sapiens, UniProt P43116).
T5 construct: expressed in transfected cells; host or cells: HEK-293
Description: Agonist activity at recombinant human EP2 prostanoid receptors (cAMP in HEK-293 clones). In kind it is cell-based. The following applies: for EC50: HEK-293 stably transfected with human EP2, cAMP accumulation, read-out: pEC50 EP2 (converted); for activity (EP2 part): functional classification at EP2. (In general: Cyclic AMP is a second messenger, typically raised through Gs and lowered through Gi signalling.)

T5 sequence (P43116 whole entry): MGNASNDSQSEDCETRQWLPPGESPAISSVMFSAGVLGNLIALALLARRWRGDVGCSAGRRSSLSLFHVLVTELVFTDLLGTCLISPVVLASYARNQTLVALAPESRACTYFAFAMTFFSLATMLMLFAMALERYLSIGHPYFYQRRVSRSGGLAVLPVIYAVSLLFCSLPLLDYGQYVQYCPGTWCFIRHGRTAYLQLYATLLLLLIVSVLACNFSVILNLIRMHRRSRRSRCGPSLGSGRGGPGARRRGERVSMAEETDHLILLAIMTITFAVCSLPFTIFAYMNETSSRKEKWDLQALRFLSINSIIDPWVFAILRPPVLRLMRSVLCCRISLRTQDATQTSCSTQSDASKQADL
T4 sequence (P43116 whole entry): as above
T3 sequence (P35408 whole entry): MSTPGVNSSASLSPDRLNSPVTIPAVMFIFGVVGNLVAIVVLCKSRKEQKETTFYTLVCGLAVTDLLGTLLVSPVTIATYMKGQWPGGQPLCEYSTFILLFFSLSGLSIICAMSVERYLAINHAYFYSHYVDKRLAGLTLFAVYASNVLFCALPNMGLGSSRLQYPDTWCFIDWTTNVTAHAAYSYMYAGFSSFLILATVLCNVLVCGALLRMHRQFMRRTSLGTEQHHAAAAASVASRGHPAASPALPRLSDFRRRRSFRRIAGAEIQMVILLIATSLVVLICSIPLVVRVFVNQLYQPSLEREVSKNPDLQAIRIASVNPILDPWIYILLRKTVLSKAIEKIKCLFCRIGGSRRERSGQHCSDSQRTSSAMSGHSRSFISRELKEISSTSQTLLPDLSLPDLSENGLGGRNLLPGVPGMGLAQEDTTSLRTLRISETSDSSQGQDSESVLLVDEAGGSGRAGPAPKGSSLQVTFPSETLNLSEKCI
T2 sequence (P35408 whole entry): as above

As to `O=C(O)Cc1ccc(NC(=O)c2ccc(-c3ccccc3)o2)cc1` [Compound 2, {4-[(5-Phenyl-furan-2-carbonyl)-amino]-phenyl}-acetic acid], the Ki is > 1e-05 M on human EP3 receptor, < 1e-05 M at human EP4 receptor and < 1e-05 M on human EP2 receptor. Also, in assay [1], the Kb is < 10000 nM. Further, the “activity (EP4 part)” value in assay [1] is “EP4 antagonist”. Also, the EC50 in assay [2] was < 10000 nM. The “activity (EP2 part)” value in assay [2] was “EP2 agonist/”.
In the case of `O=C(O)c1ccc(CNC(=O)c2ccc(-c3ccccc3)o2)cc1` [Compound 4, 4-{[(5-Phenyl-furan-2-carbonyl)-amino]-methyl}-benzoic acid], the Ki at human EP3 receptor is > 1e-05 M. For the same compound, in assay [1], the Kb was < 10000 nM and the “activity (EP4 part)” value was “EP4 antagonist”. Besides, the Ki at human EP4 receptor was < 1e-05 M. In addition, the Ki at human EP2 receptor is < 1e-05 M. In assay [2], the EC50 is < 10000 nM and the “activity (EP2 part)” value is “EP2 agonist/”.
In the case of `O=C(O)Cc1cccc(NC(=O)c2ccc(-c3cc(Cl)cc(Cl)c3)o2)c1` [Compound 26, (3-{[5-(3,5-Dichloro-phenyl)-furan-2-carbonyl]-amino}-phenyl)-acetic acid], the Ki at human EP3 receptor is > 1e-05 M. Besides, in assay [1], the Kb is < 1000 nM and the “activity (EP4 part)” value is listed as “EP4 antagonist”. Besides, at human EP4 receptor, the Ki was < 1e-07 M. Moreover, the Ki at human EP2 receptor was < 1e-07 M. In addition, in assay [2], the EC50 was < 100 nM and the “activity (EP2 part)” value is reported as “EP2 agonist/”.
As for `O=C(O)/C=C/c1cccc(NC(=O)c2ccc(-c3ccccc3)o2)c1` [Compound 61, 3-{3-[(5-Phenyl-furan-2-carbonyl)-amino]-phenyl}-acrylic acid], the Ki at human EP3 receptor is > 1e-05 M. In addition, in assay [1], the Kb was < 1000 nM and the “activity (EP4 part)” value was “EP4 agonist”. Besides, at human EP4 receptor, the Ki is < 1e-06 M. Moreover, on human EP2 receptor, the Ki was < 1e-07 M. For the same compound, in assay [2], the EC50 is < 100 nM and the “activity (EP2 part)” value was “EP2 agonist/”.
With `O=C(O)COc1cccc(NC(=O)c2ccc(-c3cccc(Cl)c3)o2)c1` [Compound 66, (3-{[5-(3-Chloro-phenyl)-furan-2-carbonyl]-amino}-phenoxy)-acetic acid], the Ki at human EP3 receptor was > 1e-05 M. In assay [1], the Kb was < 1000 nM and the “activity (EP4 part)” value is recorded as “EP4 agonist”. The Ki on human EP4 receptor was < 1e-06 M. For the same compound, the Ki on human EP2 receptor was < 1e-07 M. Moreover, in assay [2], the EC50 was < 100 nM and the “activity (EP2 part)” value is “EP2 agonist/”.
In the case of `O=C(O)COc1cccc(NC(=O)c2ccc(-c3cc(Cl)cc(Cl)c3)o2)c1` [Compound 68, (3-{[5-(3,5-Dichloro-phenyl)-furan-2-carbonyl]-amino}-phenoxy)-acetic acid], on human EP3 receptor, the Ki was > 1e-05 M. In addition, in assay [1], the Kb is < 1000 nM and the “activity (EP4 part)” value is given as “EP4 antagonist”. Further, the Ki at human EP4 receptor was < 1e-06 M. On human EP2 receptor, the Ki was < 1e-07 M. In assay [2], the EC50 was < 100 nM and the “activity (EP2 part)” value is “EP2 agonist/”.
In the case of `O=C(O)/C=C/c1cccc(NC(=O)c2ccc(-c3cccc(Cl)c3)o2)c1` [Compound 69, 3-(3-{[5-(3-Chloro-phenyl)-furan-2-carbonyl]-amino}-phenyl)-acrylic acid], the Ki at human EP3 receptor was > 1e-05 M; on human EP4 receptor it was < 1e-06 M; on human EP2 receptor, < 1e-07 M. Besides, in assay [1], the “activity (EP4 part)” value is “EP4 antagonist”. The “activity (EP2 part)” value in assay [2] is reported as “EP2 agonist/”.
As for `O=C(O)/C=C/c1cccc(NC(=O)c2ccc(-c3cc(Cl)cc(Cl)c3)o2)c1` [Compound 70, 3-(3-{[5-(3,5-Dichloro-phenyl)-furan-2-carbonyl]-amino}-phenyl)-acrylic acid], the figures for the Ki at human EP3 receptor, on human EP4 receptor and at human EP2 receptor were > 1e-05 M, < 1e-06 M and < 1e-07 M, respectively. Besides, in assay [1], the “activity (EP4 part)” value is reported as “EP4 antagonist”. In addition, the “activity (EP2 part)” value in assay [2] was “EP2 agonist/”.
Take `O=C(O)c1cc2cc(NC(=O)c3ccc(-c4cccc(Cl)c4)o3)ccc2[nH]1` [Compound 72, 5-{[5-(3-Chloro-phenyl)-furan-2-carbonyl]-amino}-1H-indole-2-carboxylic acid]: the Ki on human EP3 receptor was > 1e-05 M. In addition, in assay [1], the Kb was < 1000 nM and the “activity (EP4 part)” value is reported as “EP4 antagonist”. Moreover, the Ki at human EP4 receptor was < 1e-05 M. The Ki at human EP2 receptor is < 1e-06 M. Besides, in assay [2], the EC50 was < 1000 nM and the “activity (EP2 part)” value is “EP2 agonist/”.
Take `O=C(O)CCc1cccc(NC(=O)c2ccc(-c3cccc(Cl)c3)o2)c1` [Compound 125, 3-(3-{[5-(3-Chloro-phenyl)-furan-2-carbonyl]-amino}-phenyl)-propionic acid]: the Ki at human EP3 receptor is > 1e-05 M. In assay [1], the Kb is < 10000 nM and the “activity (EP4 part)” value is listed as “EP4 Antagonist”. Also, at human EP4 receptor, the Ki was < 1e-05 M. For the same compound, the Ki on human EP2 receptor was < 1e-07 M. For the same compound, in assay [2], the EC50 was < 100 nM and the “activity (EP2 part)” value is reported as “EP2 Agonist/”.
Turning to `O=C(O)CCc1cccc(NC(=O)c2ccc(-c3cc(Cl)cc(Cl)c3)o2)c1` [Compound 126, 3-(3-{[5-(3,5-Dichloro-phenyl)-furan-2-carbonyl]-amino}-phenyl)-propionic acid], on human EP3 receptor, the Ki is > 1e-05 M. For the same compound, in assay [1], the Kb was < 1000 nM and the “activity (EP4 part)” value is “EP4 Antagonist”. For the same compound, on human EP4 receptor, the Ki is < 1e-06 M. Further, the Ki at human EP2 receptor was < 1e-07 M. Also, in assay [2], the EC50 is < 100 nM and the “activity (EP2 part)” value is on record as “EP2 Agonist/”.
In the case of `O=C(O)Cc1cccc(NC(=O)c2cccc(-c3cccc(Cl)c3)n2)c1` [Compound 129, (3-{[6-(3-Chloro-phenyl)-pyridine-2-carbonyl]-amino}-phenyl)-acetic acid], on human EP3 receptor, the Ki was > 1e-05 M. In addition, in assay [1], the Kb was < 1000 nM and the “activity (EP4 part)” value is “EP4 Antagonist”. Besides, the Ki on human EP4 receptor is < 1e-06 M. The Ki at human EP2 receptor was < 1e-07 M. In addition, in assay [2], the EC50 was < 100 nM and the “activity (EP2 part)” value is reported as “EP2 Agonist/”.
For `O=C(O)Cc1cccc(NC(=O)c2cccc(-c3cc(Cl)cc(Cl)c3)n2)c1` [Compound 130, (3-{[6-(3,5-Dichloro-phenyl)-pyridine-2-carbonyl]-amino}-phenyl)-acetic acid], at human EP3 receptor, the Ki was > 1e-05 M. Moreover, in assay [1], the Kb is < 1000 nM and the “activity (EP4 part)” value is listed as “EP4 Antagonist”. In addition, the Ki on human EP4 receptor is < 1e-06 M. Besides, the Ki at human EP2 receptor was < 1e-07 M. In assay [2], the EC50 is < 100 nM and the “activity (EP2 part)” value was “EP2 Agonist/”.
With `O=C(O)COc1cccc(NC(=O)c2cccc(-c3cc(Cl)cc(Cl)c3)n2)c1` [Compound 133, (3-{[6-(3,5-Dichloro-phenyl)-pyridine-2-carbonyl]-amino}-phenoxy)-acetic acid], at human EP3 receptor, the Ki was > 1e-05 M. In assay [1], the Kb was < 100 nM and the “activity (EP4 part)” value is reported as “EP4 Agonist”. Besides, the Ki at human EP4 receptor is < 1e-06 M. Besides, the Ki at human EP2 receptor was < 1e-07 M. Moreover, in assay [2], the EC50 is < 100 nM and the “activity (EP2 part)” value was “EP2 Agonist/”.
Take `O=C(O)COc1cccc(NC(=O)c2cccc(-c3cccc(Cl)c3)n2)c1` [Compound 138, (3-{[6-(3-Chloro-phenyl)-pyridine-2-carbonyl]-amino}-phenoxy)-acetic acid]: the Ki at human EP3 receptor was > 1e-05 M. Also, in assay [1], the Kb is < 1000 nM and the “activity (EP4 part)” value is recorded as “EP4 Agonist”. In addition, the Ki at human EP4 receptor was < 1e-07 M. The Ki on human EP2 receptor is < 1e-07 M. In addition, in assay [2], the EC50 was < 100 nM and the “activity (EP2 part)” value is “EP2 Agonist/”.
